Assay results reported in EP1724268A1, “COMPOUND HAVING TGF-BETA INHIBITORY ACTIVITY AND PHARMACEUTICAL COMPOSITION CONTAINING SAME” (KIRIN BEER KABUSHIKI KAISHA, priority 2004, dated 2005).
Where two headings read alike, the source gives them in different places.

System: TGFβ signal
Experiment: TGFβ signal inhibitory activity, (SBE)4-Luc reporter in A549 cells (Test Examples 1A and 1B)
Format: cell-based, human
Conditions: Homo sapiens
How it was run: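 Compounds at 3 µM and 10 µM (some 1 µM) were added with 2 ng/ml TGFβ-1 to A549 cells stably expressing an SBE-driven luciferase, then cultured 4 hr. Chemiluminescent luciferase signal gave % inhibition versus TGFβ-alone and no-TGFβ controls.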

[1] = A549, test compound 3 µM, TGFβ-1 2 ng/ml, 4 hr, Table 1A, read-out: TGFβ inhibition rate, %
[2] = A549, test compound 10 µM, TGFβ-1 2 ng/ml, 4 hr, Table 1A, read-out: TGFβ inhibition rate, %
[3] = A549, test compound 3 µM, Reference Examples, Table 1B, read-out: TGFβ inhibition rate, %
[4] = A549, test compound 10 µM, Reference Examples, Table 1B, read-out: TGFβ inhibition rate, %
[5] = A549, 3 µM, compounds of Reference Examples (Test Example 1B), read-out: TGFβ inhibition rate, %
[6] = A549, 10 µM, compounds of Reference Examples (Test Example 1B), read-out: TGFβ inhibition rate, %

Row | Compound | inhibition at 3 µM [1] [%] | inhibition at 3 µM [5] [%] | inhibition at 10 µM [6] [%] | other results
1 | Cc1cc(Oc2ccnc3c(F)cc(F)cc23)c(-c2ccccn2)nc1C [Compound 111, 3-(6,8-Difluoro-quinolin-4-yloxy)-5,6-dimethyl-[2,2']bipyridine] | 43 |  |  | inhibition at 10 µM [2]: 84%
2 | COc1cc2c(Oc3ccc(C)cc3C(=O)c3ccccc3)ccnc2cc1OCCN1CCC(CO)CC1 [Compound r126] |  |  |  | inhibition at 3 µM [3]: 100%; inhibition at 10 µM [4]: 100%
3 | COc1cc2nccc(Oc3cc4ccncc4nc3C)c2cc1OC [Compound 97, 3-(6,7-Dimethoxy-quinolin-4-yloxy)-2-methyl-[1,7]naphthyridine] | 52 |  |  | inhibition at 10 µM [2]: 88%
4 | COc1cc2nccc(Oc3ccc4cc(Br)ccc4c3)c2cc1OC [r18] |  |  |  | inhibition at 3 µM [3]: 15%; inhibition at 10 µM [4]: 69%
5 | CCC(=O)c1cccc(F)c1Oc1ccnc2cc(OC)c(OC)cc12 [r43] |  |  |  | inhibition at 3 µM [3]: 0%; inhibition at 10 µM [4]: 66%
6 | Cc1ccc(-c2ccc3nccc(Oc4cc(C)c(C)nc4-c4ccccn4)c3c2)s1 [Compound 165, 5,6-Dimethyl-3-[6-(5-methyl-thiophen-2-yl)-quinolin-4-yloxy]-[2,2']bipyridine] | 90 |  |  | inhibition at 10 µM [2]: 100%
7 | Cc1cc(Oc2ccnc3ccc(-c4ccccc4)cc23)c(-c2ccccn2)nc1C [Compound 5, 5,6-Dimethyl-3-(6-phenyl-quinolin-4-yloxy)-[2,2']bipyridine] | 79 |  |  | inhibition at 10 µM [2]: 100%
8 | Cc1cc(Oc2ccnc3ccc(-c4csc5ccccc45)cc23)c(-c2ccccn2)nc1C [Compound 164, 3-(6-Benzo[b]thiophen-3-yl-quinolin-4-yloxy)-5,6-dimethyl-[2,2']bipyridine] | 75 |  |  | inhibition at 10 µM [2]: 100%
9 | COc1cc2c(Oc3cc4ccccc4nc3C)ccnc2cc1OCCCCl [Compound r375] |  | 84 | 100 | 
10 | COc1ccc(-c2nc(C)ccc2Oc2ccnc3cc(OC)c(OC)cc23)cc1 [Compound r249] |  | 52 | 98 | 
11 | COc1cc2nccc(Oc3ccc(C)nc3Cc3ccccc3)c2cc1OC [r214] |  | 99 | 100 | 
12 | COc1cc2c(Oc3cc(C)c(C)cc3C(C)=O)ccnc2cc1OCCn1ccnc1 [Compound r317] |  | 100 | 100 | 
13 | CCC(O)c1cc(OC)ccc1Oc1ccnc2cc(OC)c(OC)cc12 (centres unmarked) [Compound r11] |  |  |  | inhibition at 3 µM [3]: 28%; inhibition at 10 µM [4]: 66%
14 | Cc1cc(Oc2ncnc3sc(C)c(C)c23)c(-c2ccccn2)nc1C [Compound 35, 3-(5,6-Dimethyl-thieno[2,3-d]pyrimidin-4-yloxy)-5,6-dimethyl-[2,2']bipyridine] | 95 |  |  | inhibition at 10 µM [2]: 100%
15 | CCc1ccc(Oc2ccnc3cc(C(N)=O)c(Cl)cc23)c(-c2ccccn2)n1 [Compound 185, 6-Chloro-4-(6-ethyl-[2,2']bipyridinyl-3-yloxy)-quinoline-7-carboxylic acid amide] | 96 |  |  | inhibition at 10 µM [2]: 100%
16 | COc1cc(OC)c(C(C)=O)c(Oc2ccnc3cc(OC)c(OC)cc23)c1 [r40] |  |  |  | inhibition at 3 µM [3]: 12%; inhibition at 10 µM [4]: 83%
17 | COc1cc2c(Oc3cc4ccccc4nc3C)ccnc2cc1OCCN1CCOCC1 [Compound r366] |  |  |  | inhibition at 10 µM (A549, read-out: TGFβ inhibition rate, %): 100%
18 | CCc1ccc(Oc2ccnc3ccc(OCCNS(C)(=O)=O)cc23)c(-c2ncccn2)n1 [Compound 203, N-{2-[4-(6-Ethyl-2-pyrimidin-2-yl-pyridin-3-yloxy)-quinolin-6-yloxy]-ethyl}-methanesulfonic acid amide] | 79 |  |  | 
19 | COc1cc2nccc(Oc3ccc(C)cc3C(=O)C(C)C)c2cc1OC [Compound r53] |  |  |  | inhibition at 3 µM [3]: 97%; inhibition at 10 µM [4]: 100%
20 | CCOC(=O)c1cc(C(C)=O)ccc1Oc1ccnc2cc(OC)c(OC)cc12 [Compound r88] |  |  |  | inhibition at 3 µM [3]: 70%; inhibition at 10 µM [4]: 94%
21 | COc1cc2nccc(Oc3ccc(Br)cc3C(C)=O)c2cc1OC [r34] |  |  |  | inhibition at 3 µM [3]: 0%; inhibition at 10 µM [4]: 78%
22 | COc1cc2nccc(Oc3ccc(C)nc3-c3cccc(C(C)=O)c3)c2cc1OC [Compound r232] |  | 66 | 79 | 
23 | Cc1ccc(-c2nc(C)c(C)cc2Oc2ccnc3ccccc23)nc1 [Compound r431] |  | 97 | 99 | 
24 | COc1cc2nccc(Oc3ccc(C)nc3-c3nccs3)c2cc1OC [r259] |  |  |  | inhibition at 1 µM (A549, 1 µM, compounds of Reference Examples (Test Example 1B), read-out: TGFβ inhibition rate, %): 100%
25 | CCc1ccc(Oc2ccnc3ccc(OCCOC(=O)[C@@H](N)C(C)C)cc23)c(-c2ncccn2)n1 [Compound 208, 2-[4-(6-Ethyl-2-pyrimidin-2-yl-pyridin-3-yloxy)-quinolin-6-yloxy]-ethyl (S)-2-amino-3-methyl-butanoate] | 75 |  |  | 

Row | Compound | inhibition at 3 µM [1] [%] | inhibition at 3 µM [5] [%] | inhibition at 10 µM [6] [%] | other results
26 | Cc1cc(Oc2ccnc3cc(Cl)c(Cl)cc23)c(-c2ccccn2)nc1C [Compound 131, 3-(6,7-Dichloro-quinolin-4-yloxy)-5,6-dimethyl-[2,2']bipyridine] | 99 |  |  | inhibition at 10 µM [2]: 100%
27 | Cc1cc(Oc2ccnc3cc(-c4ccccc4)sc23)c(-c2ccccn2)nc1C [Compound 29, 5,6-Dimethyl-3-(2-phenyl-thieno[3,2-b]pyridin-7-yloxy)-[2,2']bipyridine] | 100 |  |  | inhibition at 1 µM (A549, test compound 1 µM, TGFβ-1 2 ng/ml, 4 hr, Table 1A, read-out: TGFβ inhibition rate, %): 89%
28 | COc1cc2nccc(Oc3ccc(C)cc3C(=O)C(C)(C)C)c2cc1OC [Compound r54] |  |  |  | inhibition at 3 µM [3]: 13%; inhibition at 10 µM [4]: 73%
29 | COc1cc2c(Oc3cc(C)c(C)nc3-c3cccnc3)ccnc2cc1OCCCO [Compound r347] |  | 100 |  | 
30 | COc1cc2nccc(Oc3ccc4ncsc4c3-c3ccccc3)c2cc1OC [Compound r295] |  | 47 | 96 | 
31 | COc1cc2nccc(Oc3ccc(C)nc3-c3cccc(Cl)c3)c2cc1OC [Compound r241] |  | 96 | 100 | 
32 | COc1cc2c(Oc3cc(C)c(C)nc3-c3ccccc3)ccnc2cc1OCC1CO1 (centres unmarked) [Compound r334] |  | 99 |  | 
33 | COc1cc2c(Oc3cc4ccccc4nc3C(C)=O)ccnc2cc1OCC(O)CO (centres unmarked) [Compound r395] |  | 96 | 100 | 
34 | Cc1cc(Oc2ccnc3cc(Cl)ccc23)c(-c2ccccn2)nc1C [Compound 13, 3-(7-Chloro-quinolin-4-yloxy)-5,6-dimethyl-[2,2']bipyridine] | 99 |  |  | inhibition at 10 µM [2]: 100%
35 | COc1cc2c(Oc3ccc(C)cc3C(=O)c3ccccc3)ccnc2cc1OCCCN1CCN(C)CC1 [r138] |  |  |  | inhibition at 3 µM [3]: 96%; inhibition at 10 µM [4]: 100%
36 | COc1ccc(Oc2ccnc3cc(OCCCCl)c(OC)cc23)c(C(C)=O)c1 [Compound r121] |  |  |  | inhibition at 3 µM [3]: 100%; inhibition at 10 µM [4]: 100%
37 | COc1cc2nccc(Oc3ccc(C)nc3-c3ccc(O)cc3)c2cc1OC [Compound r248] |  | 99 | 100 | 
38 | COc1cc2nccc(Oc3ccc(O)cc3C(C)=O)c2cc1OC [r176] |  | 32 | 67 | 
39 | COc1cc2nccc(Oc3cc(C)c(C)cc3C(C)=NN)c2cc1OC [Compound r193, {1-[2-(6,7-Dimethoxy-quinolin-4-yloxy)-4,5-dimethylphenyl]-ethylidene}-hydrazine] |  | 74 | 99 | 
40 | COc1cc2nccc(Oc3cc4cccnc4nc3-c3ccccc3)c2cc1OCc1ccccc1 [Compound 123, 3-(6-Benzyloxy-7-methoxy-quinolin-4-yloxy)-2-phenyl-[1,8]naphthyridine] | 99 |  |  | inhibition at 10 µM [2]: 100%
41 | COc1cc2nccc(Oc3cc4ccccc4nc3C)c2cc1OCCn1ccnc1 [Compound r416, 6-(2-Imidazol-1-yl-ethoxy)-7-methoxy-4-(2-methyl-quinolin-3-yloxy)-quinoline] |  | 92 | 100 | 
42 | CCOC(=O)c1ccccc1C(=O)c1ccnc2cc(OC)c(OC)cc12 [Compound r163, Ethyl 2-[(6,7-dimethoxy-4-quinolyl)carbonyl]benzoate] |  |  |  | inhibition at 3 µM [3]: 3%; inhibition at 10 µM [4]: 67%
43 | COc1cc2c(Oc3cc(C)c(C)nc3-c3ccccn3)ccnc2cc1C(N)=O [Compound 145, 4-(5,6-Dimethyl-[2,2']bipyridinyl-3-yloxy)-6-methgxy-quinoline-7-carboxylic acid amide] | 78 |  |  | inhibition at 10 µM [2]: 100%
44 | COc1cc2nccc(Oc3cc4ccccc4nc3-c3ccccc3)c2cc1OC [Compound r283, 6,7-Dimethoxy-4-(2-phenyl-quinolin-3-yloxy)-quinoline] |  | 99 | 100 | 
45 | COc1cc2nccc(Oc3ccc(C)nc3C#C[Si](C)(C)C)c2cc1OC [r212] |  | 94 | 100 | 
46 | COc1cc2c(Oc3ccc(C)cc3C(=O)c3ccccc3)ccnc2cc1OCCCl [r123] |  |  |  | inhibition at 3 µM [3]: 98%; inhibition at 10 µM [4]: 100%
47 | COc1cc2nccc(Oc3ccc(Cl)cc3C(=O)Nc3ccc(Cl)c(Cl)c3)c2cc1OC [Compound r107] |  |  |  | inhibition at 3 µM [3]: 0%; inhibition at 10 µM [4]: 82%
48 | COc1cc2nccc(Oc3ccc(C)nc3-c3ccccc3Cl)c2cc1OC [Compound r228] |  | 88 | 100 | 
49 | Cc1cc(Oc2ccnc3cc(-c4ccc(O)cc4)ccc23)c(-c2ccccn2)nc1C [Compound 107, 4-[4-(5,6-Dimethyl-[2,2']bipyridinyl-3-yloxy)-quinolin-7-yl]-phenol] | 100 |  |  | inhibition at 10 µM [2]: 100%
